Square brackets hold non-standard residues; d marks the D form. Ends that are not written are not given here. * marks the point of attachment. Octanoyl = CCCCCCCC(=O)*; Dap = NC[C@H](N)C(=O)O
Legend:
[1] = Subcutaneous administration of acylated ghrelin splice variant: weight gain, food consumption, body composition in 129Sv mice; format: in vivo
Method: FIG. 1A is a line graph showing cumulative body weight gain of acylated ghrelin splice variant-treated (SEQ ID NOs: 2 and 5) 129Sv mice compared to vehicle-treated controls. Acylated ghrelin splice variant induces body weight gain in male wild-type mice (n=10 per group, P=0.0001). In mice treated once daily for two weeks with acylated ghrelin splice variant (0.8 mg/kg, subcutaneously), cumulative weight gain of the SEQ ID NO:2 group was 3.4 times more than the vehicle-injected control animals. Cumulative weight gain of the acylated SEQ ID NO:5 group was 2 times more than the vehicle-injected control animals. FIG. 1B is a line graph showing cumulative food consumption of acylated ghrelin splice variant-treated (SEQ ID NOs: 2 and 5) 129Sv mice compared to vehicle-treated controls. […] Mice treated once daily for two weeks with acylated ghrelin splice variant (0.8 mg/kg, subcutaneously) ate 13% more than the vehicle-injected control animals (n=10 per group, P=0.004).
FIG. 2A is a line graph showing cumulative body weight gain of acylated ghrelin splice variant-treated (SEQ ID NOs: 2 and 4) 129Sv mice and of unacylated SEQ ID NO:5 compared to vehicle-treated controls. Acylated ghrelin splice variants induces body weight gain in male wild-type mice (n=8 per group, P=0.0001). In mice treated once daily for seven days with acylated or un-acylated ghrelin splice variant (7.2 mg/kg, subcutaneously), cumulative weight gain of the SEQ ID NO:2 and SEQ ID NO:4 group was 2.2 times more than the vehicle-injected control animals. Cumulative weight gain of the un-acylated SEQ ID NO:5 group was 25% less than the vehicle-injected control animals. FIG. 2B is a line graph showing cumulative food consumption of acylated ghrelin splice variant-treated (SEQ ID NOs: 2 and 4) 129Sv mice and of unacylated SEQ ID NO:5 compared to vehicle-treated controls. […] Mice treated once daily for seven days with acylated ghrelin splice variants (7.2 mg/kg, subcutaneously) ate 18% more than the vehicle-injected control animals (n=8 per group). Mice treated once daily for seven days with SEQ ID NO:5 (7.2 mg/kg, subcutaneously) ate 2% less than the vehicle-injected control animals (n=8 per group).
FIG. 4 is a bar graph showing the change in body composition of acylated ghrelin splice variant-treated (SEQ ID NOs: 2 and 4) 129Sv mice and unacylated SEQ ID NO:5 treated mice compared to vehicle and ghrelin-treated controls. Effect of seven days daily subcutaneous treatment with saline, ghrelin or acylated ghrelin splice variant (7.2 mg/kg, subcutaneously) on fat and lean body mass as measured by NMR is shown.
Acylated ghrelin splice variant (20 μg (FIGS. 1A and 1B) or 180 μg (FIGS. 2A and 2B)) or the Vehicle (1.6% mannitol) were administered once daily for 14 successive days (FIGS. 1A and 1B) or 7 successive days (FIGS. 2A and 2B), via the subcutaneous (SC) route, to groups comprising n=10 (FIGS. 1A and 1B) or n=8 (FIGS. 2A and 2B) 129Sv male mice. […] All animals were subjected to terminal bleeding, under CO2 anesthesia, immediately prior to euthanasia. Terminal blood collection was performed serially as per animal number, and not as per group.
Biochemistry: Blood for biochemistry analysis was collected into non-coated pre-labeled tubes. The tubes were pre-labeled and contained the following information: Study number, group number, animal number and date. Following clotting, the blood from each animal was centrifuged, and the serum was collected into two pre-labeled tubes and submitted for analysis as follows: Serum, 250 μl, was kept at 2-8° C. until analysis. The samples were subjected to the following listed tests using a Hitachi 917 system: Creatinine, Total bilirubin, Glucose, Triglycerides, Cholesterol, HDL, LDL, Total protein, Globulin, Albumin, Urea, Potassium, Phosphorus, Calcium, Sodium, Chloride, sGOT, sGPT, ALP. Urinalysis: Urine was collected into pre-labeled tubes (as above) from all animals (where possible) prior and/or after euthanasia. […]

[2] = cited from earlier work
[3] = 129Sv male mice, 0.8 mg/kg subcutaneously once daily for two weeks, n=10 per group
[4] = 129Sv male mice, 7.2 mg/kg subcutaneously once daily for seven days, n=8 per group

## GSS (CO—C7H15) FLSPEHQRVQVRPPHKAPH (GSS(Octanoyl)FLSPEHQRVQVRPPHKAPH; listed as Homo sapiens) [SEQ ID NO:2, 22 amino acid human ghrelin splice variant, acylated at position 3]
[1]; [3]
  cumulative weight gain, times more than the vehicle-injected control animals: 3.4 times
[1]; [4]
  cumulative weight gain, times more than the vehicle-injected control animals: 2.2 times

## SEQ ID NO:4: 24 amino acid human ghrelin splice variant having a 2,3-diaminopropionic acid (Dpr) residue in the third position, acylated (GS[Dap]FLSPEHQRVQVRPPHKAPHVV; also: Dpr3 acylated, acyl group not given here; listed as Homo sapiens)
[1]; [4]
  cumulative weight gain, times more than the vehicle-injected control animals: 2.2 times

## acylated SEQ ID NO:5: 29 amino acid human ghrelin splice variant, acylated at position 3 (GSSFLSPEHQRVQVRPPHKAPHVVPALPL; also: acylated at position 3 (acyl group not given here); listed as Homo sapiens)
[1]; [3]
  cumulative weight gain, times more than the vehicle-injected control animals: 2 times

## ghrelin: 28 amino acid peptide bearing an n-octanoyl side chain on the third serine (GSS(Octanoyl)FLSPEHQRVQQRKESKKPPAKLQPR; UniProt Q9UBU3 24-51, looked up)
[1]; Applicant's statement in the background
  effect of weight gain (lean vs fat mass): mainly on fat mass
[2]; infusion for 90 minutes, cancer cachexia patients
  increase of food intake: 30%
[2]; subcutaneous injection of 3.6 nmol/kg prior to a meal
  increase of energy intake: 27%

## un-acylated SEQ ID NO:5: 29 amino acid human ghrelin splice variant without acyl group (GSSFLSPEHQRVQVRPPHKAPHVVPALPL; listed as Homo sapiens)
[1]; [4]
  cumulative weight gain, less than the vehicle-injected control animals: 25%
[1]; 129Sv mice, 7.2 mg/kg subcutaneously once daily for seven days, n=8 per group
  cumulative food consumption, less than the vehicle-injected control animals: 2%

Source: patent US7763707B2, “Use of ghrelin splice variant for treating cachexia and/or anorexia and/or anorexia-cachexia and/or malnutrition and/or lipodystrophy and/or muscle wasting and/or appetite-stimulation” (priority 2006, dated 2010)
